The values below come from ChEMBL document CHEMBL2406941, “Discovery of 'molecular switches' within a GIRK activator scaffold that afford selective GIRK inhibitors” (Bioorg Med Chem Lett, 2013).

Active and inactive are the calls of the source. No cut-off for these calls is given here.

A word on the inhibition: it is the change of the read-out against control, counted positive when it falls. A word on the IC50: it is the point on the concentration scale where inhibition reaches its midpoint. For orientation: EC50 means the concentration giving half of the maximal effect.

Test [1] addresses T1, Kir3.1/Kir3.4 (Homo sapiens) (UniProt P48549+P48544). Briefly: Inhibition of GIRK1/4 (unknown origin) relative to SCH3320. It is filed as protein-complex assay. Further details: concentration or dose not given beside the values. The note with it: concentration not given here.
Test [2] addresses T2, Kir3.1/Kir3.4 (Homo sapiens, UniProt P48544+P48549).
T2 sequence (P48549 whole entry): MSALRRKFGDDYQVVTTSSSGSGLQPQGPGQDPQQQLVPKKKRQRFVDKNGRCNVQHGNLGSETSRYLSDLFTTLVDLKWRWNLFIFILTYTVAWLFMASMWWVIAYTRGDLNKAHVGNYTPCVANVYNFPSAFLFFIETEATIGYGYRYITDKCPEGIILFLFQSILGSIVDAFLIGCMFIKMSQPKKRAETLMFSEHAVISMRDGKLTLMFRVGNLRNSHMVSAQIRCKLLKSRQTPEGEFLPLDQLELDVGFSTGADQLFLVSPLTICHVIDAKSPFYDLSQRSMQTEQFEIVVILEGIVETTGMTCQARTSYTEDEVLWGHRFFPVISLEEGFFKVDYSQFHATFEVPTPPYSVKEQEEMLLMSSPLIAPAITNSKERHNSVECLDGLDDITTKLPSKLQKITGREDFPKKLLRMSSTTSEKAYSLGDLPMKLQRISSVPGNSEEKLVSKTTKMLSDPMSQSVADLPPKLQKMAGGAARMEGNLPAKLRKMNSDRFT
T2 sequence (P48544 whole entry): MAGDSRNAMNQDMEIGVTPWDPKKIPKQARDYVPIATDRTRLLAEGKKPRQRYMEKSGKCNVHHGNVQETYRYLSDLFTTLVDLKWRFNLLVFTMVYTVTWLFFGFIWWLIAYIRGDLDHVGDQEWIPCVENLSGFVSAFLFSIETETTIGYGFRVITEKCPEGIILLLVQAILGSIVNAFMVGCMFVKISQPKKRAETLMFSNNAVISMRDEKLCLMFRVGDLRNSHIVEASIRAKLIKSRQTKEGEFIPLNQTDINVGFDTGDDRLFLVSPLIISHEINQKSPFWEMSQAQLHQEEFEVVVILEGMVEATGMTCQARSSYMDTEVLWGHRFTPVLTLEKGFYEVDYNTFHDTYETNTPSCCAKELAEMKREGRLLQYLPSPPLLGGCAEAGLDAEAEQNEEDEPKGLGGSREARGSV
Briefly: Inhibition of GIRK1/4 (unknown origin). Type of test: protein-complex assay.

Test [3] has as its target T3, Kir3.1/Kir3.2 (Homo sapiens) (UniProt P48549+P48051). In words: Inhibition of GIRK1/2 (unknown origin) relative to SCH3320. Type of test: protein-complex assay. Further details: concentration or dose not given beside the values. The note with it: concentration not given here.
The target of test [4] is T4, Kir3.1/Kir3.2 (Homo sapiens, UniProt P48051+P48549).
T4 sequence (P48549 whole entry): T2 sequence (P48549 whole entry)
T4 sequence (P48051 whole entry): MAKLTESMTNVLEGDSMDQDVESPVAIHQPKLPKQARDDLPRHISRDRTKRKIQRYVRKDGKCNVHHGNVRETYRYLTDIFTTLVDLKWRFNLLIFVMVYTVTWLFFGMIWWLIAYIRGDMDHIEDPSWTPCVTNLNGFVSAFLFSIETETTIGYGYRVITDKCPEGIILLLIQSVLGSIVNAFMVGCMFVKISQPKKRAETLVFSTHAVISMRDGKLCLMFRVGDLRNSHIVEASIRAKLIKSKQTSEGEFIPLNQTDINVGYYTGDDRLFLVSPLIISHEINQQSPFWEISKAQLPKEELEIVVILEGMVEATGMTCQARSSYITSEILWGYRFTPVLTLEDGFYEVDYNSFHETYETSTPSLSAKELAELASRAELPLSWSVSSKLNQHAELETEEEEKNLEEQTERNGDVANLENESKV
In words: Inhibition of GIRK1/2 (unknown origin). It is filed as protein-complex assay.

Test [5] has as its target T4, Kir3.1/Kir3.2. Briefly: Activation of GIRK1/2 (unknown origin). Type of test: protein-complex assay.
Test [6] concerns the target T1, Kir3.1/Kir3.4 (Homo sapiens). In words: Activation of GIRK1/4 (unknown origin) relative to ML297. It is filed as protein-complex assay.
Test [7] has as its target T3, Kir3.1/Kir3.2 (Homo sapiens). Briefly: Activation of GIRK1/2 (unknown origin) relative to ML297. Type of test: protein-complex assay.
Test [8] has as its target T2, Kir3.1/Kir3.4. In words: Activation of GIRK1/4 (unknown origin). It is filed as protein-complex assay.
Test [9] deals with T5, G protein-activated inward rectifier potassium channel 2 (Homo sapiens) (UniProt P48051).
T5 sequence (whole entry): T4 sequence (P48051 whole entry)
In words: Activation of GIRK2 (unknown origin).

Test [10] deals with Kir3.2/Kir3.3 (Homo sapiens) (UniProt P48051+Q92806). Briefly: Activation of GIRK2/3 (unknown origin). Type of test: protein-complex assay.

For `O=C(Nc1ccc(F)cc1)Nc1cc(CC2CC2)nn1-c1ccccc1`, the results for the inhibition in [1] and in [3] were 54% and 80%, respectively. Further, the figures for the half-inhibitory concentration (IC50) against Kir3.1/Kir3.4 [2] and on Kir3.1/Kir3.2 [4] were 270 nM and 640 nM, respectively.

As to `CC(C)c1cc(NC(=O)Nc2cccc(Cl)c2)n(Cc2ccccc2)n1`, the 50% effective concentration (EC50) on Kir3.1/Kir3.2 [5] turned out to be 470 nM; on Kir3.1/Kir3.4 [8] it was 1700 nM. In addition, the Efficacy turned out to be 23% in [6] and 35% in test [7].

Consider `O=C(Nc1cccc(C(F)(F)F)c1)Nc1cc(C2CCC2)nn1-c1ccccc1`, for which the inhibition in test [1] turned out to be 84%; in test [3], 65%. For the same compound, the IC50 at Kir3.1/Kir3.4 [2] amounted to 690 nM; against Kir3.1/Kir3.2 [4] it was 1300 nM.

As to `O=C(Nc1ccc(F)c(F)c1)Nc1cc(C(F)(F)F)nn1-c1ccccc1`, the outcome in [9] and in test [10] was inactive.

Take `Cc1cccc(NC(=O)Nc2cc(CC3CC3)nn2-c2ccccc2)c1`: the figures for the inhibition in [1] and in [3] were 47% and 83%, respectively. Besides, the figures for the IC50 on Kir3.1/Kir3.4 [2] and at Kir3.1/Kir3.2 [4] were 250 nM and 520 nM, respectively.

On to `Cc1cccc(NC(=O)Nc2cc(C(C)C)nn2-c2ccccc2)c1`, for which the inhibition worked out at 67% in [1] and 93% in test [3]. For the same compound, the results for the IC50 against Kir3.1/Kir3.4 [2] and against Kir3.1/Kir3.2 [4] were 850 nM and 2600 nM, respectively.

For `O=C(Nc1ccc(F)c(F)c1)Nc1cc(C2CCCC2)nn1-c1ccccc1`, the outcome in test [9] and in [10] was inactive. Further, the results for the inhibition in test [1] and in [3] were 88% and 85%, respectively. Besides, the 50% inhibitory concentration (IC50) against Kir3.1/Kir3.4 [2] was 4100 nM; against Kir3.1/Kir3.2 [4] it was 5100 nM.

For `CC(C)c1cc(NC(=O)Nc2cccc(C(F)(F)F)c2)n(-c2ccccc2)n1`, the inhibition in test [1] is 100%; in test [3] it was 62%. Further, the IC50 against Kir3.1/Kir3.4 [2] came out at 1300 nM; at Kir3.1/Kir3.2 [4], 2100 nM.

Regarding `O=C(Nc1cccc(C(F)(F)F)c1)Nc1cc(CC2CC2)nn1-c1ccccc1`, the inhibition in test [1] was determined as 45%; in [3] it was 88%. Also, the IC50 at Kir3.1/Kir3.4 [2] was 250 nM; against Kir3.1/Kir3.2 [4], 540 nM.

Regarding `O=C(Nc1ccc(F)c(Cl)c1)Nc1cc(C2CCC2)nn1-c1ccccc1`, the inhibition in test [1] worked out at 69%; in test [3], 70%. In addition, the half-inhibitory concentration (IC50) came out at 610 nM at Kir3.1/Kir3.4 [2] and 1900 nM at Kir3.1/Kir3.2 [4].

Turning to `O=C(Nc1cccc(Br)c1)Nc1cc(C2CC2)nn1Cc1ccccc1`, the results for the 50% effective concentration (EC50) at Kir3.1/Kir3.2 [5] and at Kir3.1/Kir3.4 [8] were 380 nM and 790 nM, respectively. Moreover, the Efficacy in test [6] came to 65%; in [7], 44%.

Consider `CC(C)c1cc(NC(=O)Nc2ccc(F)c(F)c2)n(-c2ccccc2)n1`, for which the outcome in test [9] and in test [10] was inactive. The inhibition in test [1] came to 150%; in [3], 136%. The 50% inhibitory concentration (IC50) on Kir3.1/Kir3.4 [2] came to 1400 nM; against Kir3.1/Kir3.2 [4], 2000 nM.

`O=C(Nc1cccc(C(F)(F)F)c1)Nc1cc(C2CC2)nn1Cc1ccccc1`: the concentration for a half-maximal effect (EC50) at Kir3.1/Kir3.2 [5] is 340 nM; at Kir3.1/Kir3.4 [8], 650 nM. Also, the Efficacy in [6] was 39%; in test [7], 35%.

`O=C(Nc1ccc(F)c(F)c1)Nc1cc(-c2ccccc2)nn1-c1ccccc1`: the outcome in test [9] and in test [10] was inactive. The concentration giving a half-maximal response (EC50) on Kir3.1/Kir3.2 [5] was > 30000 nM.

With `O=C(Nc1ccc(F)c(Cl)c1)Nc1cc(C2CC2)nn1Cc1ccccc1`, the half-maximal effective concentration (EC50) at Kir3.1/Kir3.2 [5] is 210 nM; on Kir3.1/Kir3.4 [8], 320 nM. Besides, the figures for the Efficacy in test [6] and in [7] were 83% and 47%, respectively.

As for `CSc1cccc(NC(=O)Nc2cc(C3CC3)nn2-c2ccccc2)c1`, the concentration for half-maximal inhibition (IC50) on Kir3.1/Kir3.4 [2] was > 30000 nM; on Kir3.1/Kir3.2 [4], 950 nM. The inhibition in [3] was 86%.
